A short description of data set [1]: Example 1: pritelivir aqueous suspension SC PK study in rat. Format: in vivo, male Sprague Dawley rats. The conditions noted are these: aqueous suspension (dihydrate), 33.33 mg/kg and 166.67 mg/kg, both dosing levels. On the procedure: (§1) The LC-MS methodology and conditions used to analyse pritelivir in plasma samples from the PK studies described in Examples 1 to 5 are provided in Table 1.
An aqueous suspension of crystalline pritelivir free base (dihydrate) in a 0.9% NaCl+0.5% polysorbate 80 vehicle at concentrations of 10.0 mg/mL and 50.0 mg/mL was prepared as follows: • 1) Vehicle (0.9% w/w NaCl and 0.5% w/w polysorbate 80) was prepared by dissolving NaCl and polysorbate 80 in water. • 2) Appropriate amount of crystalline pritelivir free base (dihydrate) was weighed and added to the vehicle. • 3) Mixture was vortexed for 1 minute, stirred for 10 minutes and then sonicated for 15 minutes. • 4) The final dosing formulation was a homogenous white cloudy suspension.
Male Sprague Dawley (SD) rats with ~300 g body weight (ages 6-8 weeks) were used for the pharmacokinetic study. The animals had free access to food and water. The pritelivir suspensions described above were administered via sub-cutaneous injection to each animal group (n=3) with a dosing volume of 3.33 mL/kg to achieve 33.33 mg/kg and 166.67 mg/kg doses.
At each time point, approximately 200 μL whole blood was collected in a K2EDTA tube via the jugular vein. Blood samples were put on ice and centrifuged at 2000 g for 5 min to obtain a plasma sample within 15 minutes. Plasma samples were stored at approximately −70° C. until analyzed by LC-MS.

Data set [2] can be described thus: Example 4: pritelivir aqueous suspension SC PK study in dog. The conditions noted are these: aqueous suspension (dihydrate), 10 mg/kg, following an initial drug burst. It is filed as in vivo, male non-naïve Beagle dogs. On the procedure: as §1
An aqueous suspension of crystalline pritelivir free base (dihydrate) in a 0.9% NaCl+0.5% poloxamer 188 vehicle at a concentration of 5.0 mg/mL was prepared as follows: • 1) Vehicle (0.9% w/w NaCl and 0.5% w/w poloxamer 188) was prepared by dissolving NaCl and poloxamer 188 in water. • 2) Appropriate amount of crystalline pritelivir free base (dihydrate) was weighed and added to the vehicle. • 3) Mixture was stirred for 15 minutes, then vortexed for 1 minute and then sonicated for 10 minutes. • 4) The final dosing formulation was a homogenous white cloudy suspension.
Male non-naïve beagles were used for the dog PK study. The animals had free access to food and water. The prepared suspension was administered via subcutaneous injection to each animal group (n=3) with a dosing volume of 2 mL/kg to achieve a 10 mg/kg dose.
At each time point, approximately 0.5 mL of whole blood was collected into K2EDTA tubes. Blood samples were put on ice and centrifuged at 2000 g for 5 min to obtain plasma samples within 15 minutes. Plasma samples were stored at approximately −70° C. until analyzed by LC-MS.

Data set [3] is described as follows: Example 7: Compound 1 aqueous suspension SC PK study in rat. It is filed as in vivo, male Sprague Dawley rats. The settings on record: aqueous suspension (Form A), 10 mg/kg. On the procedure: The LC-MS methodology and conditions used to analyse the helicase-primase inhibitor Compound 1 in plasma samples from the sub-cutaneous injection PK studies (Examples 7 and 10-12) are described in Table 3 and Table 4. An aqueous suspension of crystalline Compound 1 (Form A) was prepared in a 0.9% NaCl+0.5% polysorbate 80 vehicle at a concentration of 3.0 mg/mL as described in Example 2. The suspension was then dosed to male SD rats at 10 mg/kg according to the Example 2 animal dosing method.

A short description of data set [4]: Example 7: Compound 1 aqueous suspension SC PK study in monkey. It is filed as in vivo, male cynomolgus monkeys. The settings on record: aqueous suspension (Form A), 10 mg/kg. On the procedure: The LC-MS methodology and conditions used to analyse the helicase-primase inhibitor Compound 1 in plasma samples from the sub-cutaneous injection PK studies (Examples 7 and 10-12) are described in Table 3 and Table 4. An aqueous suspension of crystalline Compound 1 (Form A) was prepared in a 0.9% NaCl+0.5% polysorbate 80 vehicle at a concentration of 3.0 mg/mL as described in Example 3. The suspension was then dosed to male cyno monkeys at 10 mg/kg according to the Example 3 animal dosing method.

Data set [5] can be described thus: Example 15: Compound 1 solution SC PK study in rat. Format: in vivo, male Sprague Dawley rats. The protocol: The LC-MS methodology and conditions used to analyse the helicase-primase inhibitor Compound 1 in rat plasma samples from the sub-cutaneous injection PK study described in Example 15 are provided in Table 8.
A solution of Compound 1 in 90% NMP and 10% Solutol HS15 at a concentration of 50 mg/mL was prepared as follows: • 1) An appropriate amount of crystalline Compound 1 (Form C) was weighed and added to NMP. • 2) After Compound 1 had dissolved, Solutol HS15 was added to the solution and mixed […]. • 3) The final dosing formulation was a clear solution.
Male Sprague Dawley (SD) rats with ~230-250 g body weight (aged 6-8 weeks) were used for the pharmacokinetic study. The animals had free access to food and water. […]
At each time point, approximately 150 μL whole blood was collected in a K2EDTA tube via the jugular vein. Blood samples were put on ice and centrifuged at 2000 g for 5 min to obtain a plasma sample within 15 minutes. Plasma samples were stored at approximately −70° C. until analyzed by LC-MS.

Data set [6] in a line: Example 16: Compound 1 solution SC PK study in dog. Format: in vivo, male non-naïve Beagle dogs. The settings on record: 10 mg/kg. On the procedure:
The LC-MS methodology and conditions used to analyse the helicase-primase inhibitor Compound 1 in dog plasma samples from the dog PK study described in Example 16 are given in Table 9.
A solution of Compound 1 in 90% NMP and 10% Solutol HS15 at a concentration of 50 mg/mL was prepared as follows: • 1) An appropriate amount of crystalline Compound 1 (Form C) was weighed and added to NMP. • 2) After Compound 1 had dissolved, Solutol HS15 was added to the solution and mixed. • 3) The final dosing formulation was a clear solution.
A solution of Compound 1 in 90% NMP and 10% Solutol HS15 at a concentration of 100 mg/mL was prepared as follows: • 1) An appropriate amount of crystalline Compound 1 (Form C) was weighed and added to NMP. • 2) After Compound 1 had dissolved, Solutol HS15 was added to the solution and mixed. • 3) The final dosing formulation was a clear solution.
Male non-naïve beagles were used for the dog PK study. The animals had free access to food and water. The prepared 50 mg/mL solution was administered via subcutaneous injection to each animal group (n=3) with a dosing volume of 0.2 mL/kg to achieve a 10 mg/kg dose. […]
At each time point, approximately 0.5 mL of whole blood was collected into K2EDTA tubes. […] Plasma samples were stored at approximately −70° C. until analyzed by LC-MS.

Where [7] appears, read: solution in 90% NMP/10% Solutol HS15.

With `Cc1nc(N(C)C(=O)Cc2ccc(-c3ccccn3)cc2)sc1S(N)(=O)=O` [pritelivir, N-methyl-N-(4-methyl-5-sulfamoyl-1,3-thiazol-2-yl)-2-[4-(pyridin-2-yl)phenyl]acetamide], the “prolonged exposure out to (length of the study)” value in data set [1] is recorded as “at least 720 hours”. For the same molecule, the “plasma exposure after SC administration” value in data set [2] is on record as “prolonged exposure was achieved”.
As for `Cc1nc(N2CCCN(c3ccc(-c4cc(F)ccc4F)cc3)C2=O)sc1S(N)(=O)=O` [Compound 1, 2-(3-(2′,5′-difluoro-[1,1′-biphenyl]-4-yl)-2-oxotetrahydropyrimidin-1(2H)-yl)-4-methylthiazole-5-sulfonamide], the figures for the “prolonged exposure out to (length of the study)” value in data set [3] and in data set [4] were “at least 144 hours” and “at least 1392 hours”, respectively. The “adverse reactions at the injection sites” value in data set [5] (setting [7]) and in data set [6] (both solution formulations) was “no adverse reactions were observed” in each case. Also, in data set [5] (setting [7]), the “variability in plasma concentrations” value is “low”. The “prolonged exposure for (length of the study)” value in data set [5] (solution in 90% NMP/10% Solutol HS15 (50 mg/mL), dose of 50 mg/kg as printed, following an initial drug burst) is 960 h; in data set [6] (solutions 50 mg/mL (0.2 mL/kg) and 100 mg/mL (0.1 mL/kg), both formulations) it was “at least 60 days”.
